For one series, the target named is T1, PAR-1 receptor (Homo sapiens, UniProt P25116).
T1 construct: endogenous in cells; host or cells: HEK 293
T1 sequence (P25116 22-425): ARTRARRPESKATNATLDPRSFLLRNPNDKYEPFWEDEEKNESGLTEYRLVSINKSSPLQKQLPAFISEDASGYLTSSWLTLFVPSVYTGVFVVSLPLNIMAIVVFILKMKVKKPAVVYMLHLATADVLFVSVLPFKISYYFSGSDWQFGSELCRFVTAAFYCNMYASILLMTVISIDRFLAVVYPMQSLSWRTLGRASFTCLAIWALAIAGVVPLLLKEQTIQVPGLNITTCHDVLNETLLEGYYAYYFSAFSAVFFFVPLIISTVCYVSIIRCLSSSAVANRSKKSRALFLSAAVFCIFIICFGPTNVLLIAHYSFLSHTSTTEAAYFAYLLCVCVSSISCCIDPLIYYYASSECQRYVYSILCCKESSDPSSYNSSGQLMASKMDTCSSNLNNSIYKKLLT
The experiment in a line: PAR-1 FLIPR Assay. It counts as cell-based. As to conditions: HEK 293 cells, calcium signal after PAR-1 selective receptor-activating peptide at EC80. The protocol:
This assay measures the potency of the inventive compounds as PAR-1 receptor antagonists.
Frozen HEK 293 Cells were plated in 384-well PDL coated plates at 12000 cells/well in 50 uL of DMEM media containing 10% FBS, pen/strep/L-Glutamine and non-essential amino acids, incubated overnight at 37° C./5% CO2. Media was then removed from the cells, incubated with 33 uL of Calcium-5 dye in assay buffer (Hank's buffer containing 20 mM HEPES, 0.04% Chaps and 2.5 mM Probenecid) for 60 minutes at 37° C. 2 uL of varying concentrations of compound in 40% DMSO in assay buffer (final DMSO concentration is 2.3%) were then added to the cells and incubated at 25° C. for 30 minutes. The plates were added to the FLIPR Tetra®, the device added 5 uL of PAR-1 selective receptor-activating peptide (sequence Ala-parafluoroPhe-Arg-Cha-Cit-Try-Nh2, prepared in water) at a concentration equal to the effective concentration that achieved 80% activation of signaling on the day of the experiment. The range of peptide was from 1.5-3 μM. The final volume was 40 uL/well, with 2% DMSO. The FLIPR was read at an excitation wavelength of 480 nm and an emission wavelength of 535 nm, and performed 60 scans over a 1-2 min reading time. The data were analyzed by taking the peak signal over a portion of the range of the 60 scans and dividing this signal by the minimum signal for that same range. The data were expressed as percent inhibition of the maximum divided by the minimum signal achieved at 80% activation produced by the PAR1 activating peptide on the test day. The compounds of Examples 1-9 were tested in the assay described above and the data collected for these compounds is provided.

The target in a further series is T2, hERG channel (Homo sapiens, UniProt Q12809).
T2 construct: expressed in transfected cells; host or cells: HEK293, stably transfected; membranes
T2 sequence (Q12809 whole entry): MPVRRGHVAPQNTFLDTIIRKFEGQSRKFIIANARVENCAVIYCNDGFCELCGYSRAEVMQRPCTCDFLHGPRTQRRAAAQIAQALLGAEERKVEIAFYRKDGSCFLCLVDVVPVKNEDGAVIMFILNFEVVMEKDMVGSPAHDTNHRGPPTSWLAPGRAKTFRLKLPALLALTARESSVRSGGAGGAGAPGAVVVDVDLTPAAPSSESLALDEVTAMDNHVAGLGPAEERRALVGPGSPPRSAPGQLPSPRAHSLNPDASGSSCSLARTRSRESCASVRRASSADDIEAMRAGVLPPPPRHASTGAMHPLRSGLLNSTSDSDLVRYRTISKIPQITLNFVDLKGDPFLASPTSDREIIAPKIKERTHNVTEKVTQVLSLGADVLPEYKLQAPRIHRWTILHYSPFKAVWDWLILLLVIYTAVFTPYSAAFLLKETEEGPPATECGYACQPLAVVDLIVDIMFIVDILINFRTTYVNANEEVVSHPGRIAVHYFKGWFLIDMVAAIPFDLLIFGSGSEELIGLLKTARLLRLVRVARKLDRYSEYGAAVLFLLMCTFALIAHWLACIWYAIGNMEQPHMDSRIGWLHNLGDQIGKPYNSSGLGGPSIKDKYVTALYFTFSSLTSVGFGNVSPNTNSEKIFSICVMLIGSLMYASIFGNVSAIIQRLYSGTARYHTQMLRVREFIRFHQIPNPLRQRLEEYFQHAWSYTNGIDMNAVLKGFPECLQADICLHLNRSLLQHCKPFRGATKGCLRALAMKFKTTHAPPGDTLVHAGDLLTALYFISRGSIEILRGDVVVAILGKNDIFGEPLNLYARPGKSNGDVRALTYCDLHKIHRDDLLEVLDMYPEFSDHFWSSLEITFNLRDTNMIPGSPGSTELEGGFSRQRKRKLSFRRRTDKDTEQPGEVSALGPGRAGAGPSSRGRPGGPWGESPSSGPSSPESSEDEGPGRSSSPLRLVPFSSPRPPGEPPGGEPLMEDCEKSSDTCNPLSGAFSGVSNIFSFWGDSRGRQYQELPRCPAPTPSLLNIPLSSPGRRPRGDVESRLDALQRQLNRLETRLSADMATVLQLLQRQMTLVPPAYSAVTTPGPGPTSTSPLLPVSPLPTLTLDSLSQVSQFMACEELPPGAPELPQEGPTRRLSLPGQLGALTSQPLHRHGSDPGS
As to the kind of experiment: MK-499 Filter Binding Assay. As to conditions: [35S]MK-0499 radioligand competition, membranes of HEK293 cells expressing hERG, read-out: MK499 IC50; for IC50 at 90 min: human, pH 7.4, probe [35S]MK-0499 radioligand. An excerpt: MK-499 Filter Binding Assay
This assay is used to evaluate the potential of a compound to cause drug-induced log QT syndrome.
Drug cardiac arrhythmia is an important safety concern for pharmaceutical development and health regulatory authorities. Blockade of heterologously-expressed human ether-à-go-go gene (hERG) channel prolongs the duration of the cardiac action potential leading to a long QT interval that can lead to sudden death (De Ponti, F.; et at Drug Safety 2002, 25, pp. 263-286). It is important to have compounds devoid of hERG channel activity as measured by an in vitro assay. Affinity of compounds for the hERG channel was evaluated in radioligand competition experiments using HEK293 cells that were stably transfected with the hERG channel and radiolabeled ligand, MK-499 a potent antiarrhythmic. This assay correlates well with QT prolongation in vivo (Jamieson, C.; et al., J. Med. Chem. 2006, 49, pp. 5029-5046).
25 μL Target membranes (in assay buffer: 10 mM HEPES/NaOH, pH 7.4, 70 mM NaCl, 60 mM KCl, 2 mM MgCl2, 1 mM CaCl2) purified from a HEK293 cell line expressing the human Ether-à-go-go Related Gene (hERG) ion channel, 1 μL test compound in 10 mM DMSO and 25 μL (6,000 cpm/well; in assay buffer) [35S]MK-0499 radioligand (Merck/Perkin Elmer) are added to the assay plate (Axygen; 384 Deep well “Diamond Plate”, clear). After incubation of the binding reaction at room temperature (RT) for 90 min 50 μL of the assay were transferred to a MultiscreenHTS 384 FC filter plate (Millipore), which has been pre-wetted with 20 μL 0.01% PEI/0.01% Triton X-100 for at least 30 min at RT. Then, 30 μL it wash buffer (10 mM HEPES/NaOH, pH 7.4, 130 mM NaCl, 2 mM MgCl2, 1 mM CaCl2) equilibrated to RT were added to each well of the assay plate and subsequently transferred to the filter plate. The assay mixture was aspirated through the filter plate using a Biotek ELx405™ washer. The filter plate was washed twice with 100 μl cold wash buffer per wash and well and then dried in a drying oven for at least 75 min at 55° C. Afterwards, the bottom of each filter plate was heat sealed with a solid foil seal, then 10 μL of Microscint™ 0 (Perkin Elmer) were added to each well of the filter plate and finally, the top of each filter plate was sealed with a clear seal. The plates were stored for at least 20 min in a MicroBeta2 reader (Perkin Elmer) before they are counted (60 sec/well).
(§1) Table 4 summarizes the selectivity of the inventive compounds in the CYP3A4 assay and the ability of the inventive compound to inhibit hERG.
(In general: In a radioligand displacement assay an active substance lowers the binding of a labelled ligand.)

Series [1] has as its target CYP3A4 (column heading prints CYP2D6; method and table sentence say CYP3A4) (Homo sapiens, UniProt P08684). The experiment in a line: CYP MUX (3A4) RI. As to conditions: pH 7.4, probe testosterone (75 µM); human liver microsomes; method describes testosterone as substrate for 3A4. The format is in vitro ADME.
From the text: This assay measures inhibition of CYP3A4 by a compound. Cytochromes P450 (CYPs) constitute a superfamily of heme-containing enzymes that recognize and metabolize a large number structurally diverse xenobiotics in the human body. CYP3A4 constitutes the largest portion of CYP enzymes in the liver that accounts for the metabolism of almost 50% of all drugs. This assay is used to evaluate the potential of a compound for developing DDIs. (Clarke, S. E.; Jones B. C. Drug-Drug Interactions, New York: Marcel Dekker; 2002. pp. 53-88).
Compound dilutions and assay-ready plates were prepared on a TTP Labtech Mosquito® HTS. Assay conduction was fully automated on a customized Screening Platform from Caliper (now PerkinElmer) containing a Mitsubishi robotic plate handler, Liconic incubators, a Caliper Zephyr® liquid handling workstation equipped with temperature-controlled deck positions, a Biotek MultiFlo™ dispenser and an Agilent PlateLoc heat sealer. Assay plates were Corning Costar® 384 well PP plates. High throughput mass spectrometric readout was performed on a RapidFire® 300 system coupled to an AB Sciex API 4000™ triple quadrupole device. CYP isoform 3A4 was incubated in a separate reaction of 50 μL final volume. 25 μL of HLM (human liver microsomes, BD UltraPool™ 150, 0.25 mg/mL final concentration) and the respective substrate, testosterone (75 μM) for 3A4, in potassium phosphate buffer (100 mM, pH=7.4) were added to 250 nL of stamped compound solution (10 mM in DMSO). The reactions were started upon addition of 25 μL of a co-factor solution containing magnesium chloride (3.3 mM), glucose-6-phosphate (3.3 mM), glucose-6-phosphate dehydrogenase (1.4 units) and NADP (1 mM) in potassium phosphate buffer (100 mM, pH=7.4) and incubated on deck at 37° C. for 10 min. 8 μL of each reaction were transferred to the same readout plated filled with 48 μL of stop solution containing internal standards (concentration in final readout plate), 6-hydroxytestosterone-D7 (0.5 μM), 4′-hydroxydiclofenac-D4′-(0.2 μM), and dextrorphan-D3 (0.01 μM), in acetonitrile with 0.5% formic acid. After heat sealing, plates were stored at −20° C. for at least 30 min, centrifuged and subjected directly to RapidFire®/MS analysis.
as §1

This passage reports IC50 results from US9808473B2, “Preparation and use of 3-pyridyl substituted-6,6-difluoro bicyclic himbacine derivatives as par-1 receptor antagonists” (Merck Sharp & Dohme Corp., priority 2013, dated 2017).

pIC50: −log10 of the molar value.

CYP3A4 (column heading prints CYP2D6; method and table sentence say CYP3A4), sequence (P08684 2-503): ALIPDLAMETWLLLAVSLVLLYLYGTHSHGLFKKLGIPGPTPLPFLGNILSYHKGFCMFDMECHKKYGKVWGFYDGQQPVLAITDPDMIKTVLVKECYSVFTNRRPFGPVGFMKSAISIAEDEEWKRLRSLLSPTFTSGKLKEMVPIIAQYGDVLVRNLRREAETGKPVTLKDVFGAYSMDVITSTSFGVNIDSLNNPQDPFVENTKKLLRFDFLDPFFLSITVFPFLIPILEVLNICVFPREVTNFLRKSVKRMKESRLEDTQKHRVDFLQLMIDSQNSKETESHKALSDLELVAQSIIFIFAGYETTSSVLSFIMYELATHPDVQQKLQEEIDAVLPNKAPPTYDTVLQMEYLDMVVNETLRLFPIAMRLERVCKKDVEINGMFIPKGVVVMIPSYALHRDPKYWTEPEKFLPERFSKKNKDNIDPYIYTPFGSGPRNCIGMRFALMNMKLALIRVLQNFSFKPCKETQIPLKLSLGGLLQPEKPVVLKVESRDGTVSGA

The pIC50 is the negative decadic logarithm of the IC50, by convention in mol/L. As a reminder, the IC50 is the concentration at which inhibition is half-maximal. On to `C[C@H]1OC(=O)[C@]2(O)CC(F)(F)[C@@H](C)[C@H](/C=C/c3ccc(-c4cccnc4C#N)cn3)[C@H]12` [Example 1, 6′-((E)-2-((3R,3aR,4R,5S,7aS)-6,6-difluoro-7a-hydroxy-3,5-dimethyl-1-oxooctahydroisobenzofuran-4-yl)vinyl)-[3,3′-bipyridine]-2-carbonitrile], for which the pIC50 at PAR-1 receptor is 8.23. The IC50 at 90 min on hERG channel was at least 60 µM. In series [1], this molecule had an IC50 at 10 min of at least 50 µM.

Turning to `C[C@H]1OC(=O)[C@]2(O)CC(F)(F)[C@@H](C)[C@H](/C=C/c3ccc(-c4cccnc4-c4ccccc4)cn3)[C@H]12` [Example 2, (3R,3aR,4R,5S,7aS)-6,6-difluoro-7a-hydroxy-3,5-dimethyl-4-((E)-2-(2′-phenyl-[3,3′-bipyridin]-6-yl)vinyl)hexahydroisobenzofuran-1(3H)-one], the figures for the pIC50 on PAR-1 receptor and on hERG channel were 8.05 and 4.40, respectively. Besides, the IC50 at 10 min in series [1] is 28.5 µM.

Regarding `COc1ncccc1-c1ccc(/C=C/[C@@H]2[C@@H]3[C@@H](C)OC(=O)[C@]3(O)CC(F)(F)[C@H]2C)nc1` [Example 3, (3R,3aR,4R,5S,7aS)-6,6-difluoro-7a-hydroxy-4-((E)-2-(2′-methoxy-[3,3′-bipyridin]-6-yl)vinyl)-3,5-dimethylhexahydroisobenzofuran-1(3H)-one], the pIC50 on PAR-1 receptor is 8.27. At hERG channel, the IC50 at 90 min was at least 60 µM. The IC50 at 10 min in series [1] is at least 50 µM.

For `C[C@H]1OC(=O)[C@]2(O)CC(F)(F)[C@@H](C)[C@H](/C=C/c3ccc(-c4cccnc4Cl)cn3)[C@H]12` [Example 4, (3R,3aR,4R,5S,7aS)-4-((E)-2-(2′-chloro-[3,3′-bipyridin]-6-yl)vinyl)-6,6-difluoro-7a-hydroxy-3,5-dimethylhexahydroisobenzofuran-1(3H)-one], the negative logarithm of the IC50 (pIC50) on PAR-1 receptor is 8.11; on hERG channel, 4.73. Besides, in series [1], the IC50 at 10 min is at least 50 µM.

Take `C[C@H]1OC(=O)[C@]2(O)CC(F)(F)[C@@H](C)[C@H](/C=C/c3ccc(-c4cccnc4F)cn3)[C@H]12` [Example 5]: on PAR-1 receptor, the pIC50 was 7.79. Moreover, at hERG channel, the IC50 at 90 min is at least 60 µM. In series [1], this molecule showed an IC50 at 10 min of at least 50 µM.

In the case of `C[C@H]1OC(=O)[C@]2(O)CC(F)(F)[C@@H](C)[C@H](/C=C/c3ccc(-c4cccnc4C4CC4)cn3)[C@H]12` [Example 6, (3R,3aR,4R,5S,7aS)-4-((E)-2-(2′-cyclopropyl-[3,3′-bipyridin]-6-yl)vinyl)-6,6-difluoro-7a-hydroxy-3,5-dimethylhexahydroisobenzofuran-1(3H)-one], at PAR-1 receptor, the pIC50 is 7.98. Also, the IC50 at 90 min at hERG channel was at least 60 µM. This molecule also displayed an IC50 at 10 min in series [1] of at least 50 µM.

As to `Cc1ccc(-c2ncccc2-c2ccc(/C=C/[C@@H]3[C@@H]4[C@@H](C)OC(=O)[C@]4(O)CC(F)(F)[C@H]3C)nc2)s1` [Example 7, (3R,3aR,4R,5S,7aS)-6,6-difluoro-7a-hydroxy-3,5-dimethyl-4-((E)-2-(2′-(5-methylthiophen-2-yl)-[3,3′-bipyridin]-6-yl)vinyl)hexahydroisobenzofuran-1(3H)-one], the pIC50 at PAR-1 receptor was 7.82; on hERG channel, 4.68. The same molecule had an IC50 at 10 min in series [1] of at least 50 µM.

As for `C[C@H]1OC(=O)[C@]2(O)CC(F)(F)[C@@H](C)[C@H](/C=C/c3ccc(-c4cccnc4-c4cncn4C)cn3)[C@H]12` [Example 8, (3R,3aR,4R,5S,7aS)-6,6-difIuoro-7a-hydroxy-3,5-dimethyl-4-((E)-2-(2′-(l-methyl-1H-imidazol-5-yl)-[3,3′-bipyridin]-6-yl)vinyl)hexahydroisobenzofuran-1(3H)-one], the IC50 at 90 min at hERG channel was at least 60 µM. In addition, the IC50 at 10 min in series [1] was at least 50 µM.

For `C[C@H]1OC(=O)[C@]2(O)CC(F)(F)[C@@H](C)[C@H](/C=C/c3ccc(-c4cccnc4N4CC(F)(F)C4)cn3)[C@H]12` [Example 9, (3R,3aR,4R,5S,7aS)-4-((E)-2-(2′-(3,3-difluoroazetidin-1-yl)-[3,3′-bipyridin]-6-yl)vinyl)-6,6-difluoro-7a-hydroxy-3,5-dimethylhexahydroisobenzofuran-1(3H)-one], on PAR-1 receptor, the pIC50 is 7.03. Besides, at hERG channel, the IC50 at 90 min was at least 60 µM. The IC50 at 10 min in series [1] was at least 50 µM.
